Where “and” joins values, the source holds several entries; their conditions need not be identical. Equal values may be shown once.
Tested on: BDF1 mice, Adenocarcinoma 755 s.c., tumor weight T/C
Assay: NCI In Vivo Anticancer Drug Screen. Data for tumor model Adenocarcinoma 755 (subcutaneous) in B6D2F1 (BDF1) mice
Settings: endpoint: mean tumor weight, higher = larger tumour
How it was run: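 Readout: T/C, i.e. treated-group measurement over vehicle-control measurement. Endpoint is survival or tumor size in tumor-bearing mice given compound.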

[1] = dose: 100.0 mg/kg/injection, schedule: Q01DX011 (ip), vehicle: carboxymethylcellulose (CMC)

SMILES: C[C@]12C=CC(=O)C=C1CC[C@@H]1[C@@H]2[C@@H](O)C[C@@]2(C)[C@H]1CC[C@]2(O)C(=O)COC(=O)CCC1CCCC1
- T/C (dose: 3.1 mg/kg/injection, schedule: Q01DX011 (sc), vehicle: steriod suspending solution): 64 % of control
- T/C (dose: 6.25 mg/kg/injection, schedule: Q01DX011 (sc), vehicle: steriod suspending solution): 43 % of control
- T/C (dose: 6.25 mg/kg/injection, schedule: Q01DX011 (sc), vehicle: water): 47 % of control
- T/C (dose: 12.5 mg/kg/injection, schedule: Q01DX011 (sc), vehicle: steriod suspending solution): 34 % of control
- T/C (dose: 12.5 mg/kg/injection, schedule: Q01DX011 (sc), vehicle: water): 32 % of control
- T/C (dose: 25.0 mg/kg/injection, schedule: Q01DX011 (sc), vehicle: steriod suspending solution): 22 % of control
- T/C (dose: 25.0 mg/kg/injection, schedule: Q01DX011 (sc), vehicle: water): 12 % of control
- T/C (dose: 50.0 mg/kg/injection, schedule: Q01DX011 (sc), vehicle: steriod suspending solution): 13 % of control

SMILES: S=c1[nH]c(=S)c2[nH]cnc2[nH]1
- T/C (dose: 25.0 mg/kg/injection, schedule: Q01DX011 (ip), vehicle: carboxymethylcellulose (CMC)): 84 % of control
- T/C (dose: 50.0 mg/kg/injection, schedule: Q01DX011 (ip), vehicle: carboxymethylcellulose (CMC)): 58 % of control
- T/C [1]: 31 % of control

SMILES: CC(C)CCn1cnc2c(=S)nc(N)[nH]c21
- T/C (dose: 1.5 mg/kg/injection, schedule: Q01DX011 (ip), vehicle: methylcellulose (MC)): 48 % of control
- T/C (dose: 3.1 mg/kg/injection, schedule: Q01DX011 (ip), vehicle: methylcellulose (MC)): 37 % of control
- T/C (dose: 6.2 mg/kg/injection, schedule: Q01DX011 (ip), vehicle: methylcellulose (MC)): 14 % of control
- T/C (dose: 12.5 mg/kg/injection, schedule: Q01DX011 (ip), vehicle: methylcellulose (MC)): 1 % of control and 9 % of control

SMILES: O=C(CCBr)NCCCCCCNC(=O)CCBr
- T/C (dose: 56.0 mg/kg/injection, schedule: Q01DX011 (ip), vehicle: methylcellulose (MC)): 114 % of control
- T/C (dose: 113.0 mg/kg/injection, schedule: Q01DX011 (ip), vehicle: methylcellulose (MC)): 67 % of control
- T/C (dose: 225.0 mg/kg/injection, schedule: Q01DX011 (ip), vehicle: methylcellulose (MC)): 114 % of control

SMILES: Clc1ncnc2c1ncn2C1CCCCO1 (stereo unspecified)
- T/C (dose: 31.0 mg/kg/injection, schedule: Q01DX011 (ip), vehicle: other): 72 % of control
- T/C (dose: 62.0 mg/kg/injection, schedule: Q01DX011 (ip), vehicle: other): 7 % of control

SMILES: O=c1cn[nH]c(=O)[nH]1
- T/C (dose: 110.1 mg/kg/injection, schedule: Q01DX011 (ip), vehicle: carboxymethylcellulose (CMC)): 104 % of control
- T/C (dose: 125.0 mg/kg/injection, schedule: Q01DX011 (ip), vehicle: carboxymethylcellulose (CMC)): 66 % of control
- T/C (dose: 220.2 mg/kg/injection, schedule: Q01DX011 (ip), vehicle: carboxymethylcellulose (CMC)): 80 % of control
- T/C (dose: 250.0 mg/kg/injection, schedule: Q01DX011 (ip), vehicle: carboxymethylcellulose (CMC)): 107 % of control
- T/C (dose: 440.4 mg/kg/injection, schedule: Q01DX011 (ip), vehicle: carboxymethylcellulose (CMC)): 84 % of control
- T/C (dose: 500.0 mg/kg/injection, schedule: Q01DX011 (ip), vehicle: carboxymethylcellulose (CMC)): 87 % of control
- T/C (dose: 880.8 mg/kg/injection, schedule: Q01DX011 (ip), vehicle: carboxymethylcellulose (CMC)): 77 % of control
- T/C (dose: 1000.0 mg/kg/injection, schedule: Q01DX011 (ip), vehicle: carboxymethylcellulose (CMC)): 80 % of control

SMILES: Cc1cccc(-c2c3ccccc3cc3c2ccc2ccccc23)c1
- T/C (dose: 30.0 mg/kg/injection, schedule: Q01DX011 (ip), vehicle: methylcellulose (MC)): 96 % of control
- T/C (dose: 60.0 mg/kg/injection, schedule: Q01DX011 (ip), vehicle: methylcellulose (MC)): 76 % of control
- T/C (dose: 120.0 mg/kg/injection, schedule: Q01DX011 (ip), vehicle: methylcellulose (MC)): 79 % of control
- T/C (dose: 240.0 mg/kg/injection, schedule: Q01DX011 (ip), vehicle: methylcellulose (MC)): 119 % of control

SMILES: Cc1ccccc1N=Nc1ccc(N=Nc2ccc(O)cc2)c(C)c1
- T/C (dose: 1.87 mg/kg/injection, schedule: Q01DX011 (ip), vehicle: methylcellulose (MC)): 74 % of control
- T/C (dose: 1.87 mg/kg/injection, schedule: Q01DX011 (ip), vehicle: saline): 77 % of control
- T/C (dose: 3.25 mg/kg/injection, schedule: Q01DX011 (ip), vehicle: methylcellulose (MC)): 89 % of control
- T/C (dose: 3.25 mg/kg/injection, schedule: Q01DX011 (ip), vehicle: saline): 101 % of control
- T/C (dose: 7.5 mg/kg/injection, schedule: Q01DX011 (ip), vehicle: methylcellulose (MC)): 101 % of control
- T/C (dose: 7.5 mg/kg/injection, schedule: Q01DX011 (ip), vehicle: saline): 68 % of control
- T/C (dose: 15.0 mg/kg/injection, schedule: Q01DX011 (ip), vehicle: saline): 88 % of control

SMILES: CCC1CN1CC1CO1 (stereo unspecified)
- T/C (dose: 5.0 mg/kg/injection, schedule: Q01DX011 (ip), vehicle: saline): 96 % of control
- T/C (dose: 10.0 mg/kg/injection, schedule: Q01DX011 (ip), vehicle: saline): 99 % of control

SMILES: Nc1nc(C(F)(F)F)c2ncn(Cc3ccccc3)c2n1
- T/C (dose: 60.0 mg/kg/injection, schedule: Q01DX011 (ip), vehicle: carboxymethylcellulose (CMC)): 92 % of control
- T/C (dose: 120.0 mg/kg/injection, schedule: Q01DX011 (ip), vehicle: carboxymethylcellulose (CMC)): 123 % of control

SMILES: O=[N+]([O-])O.[Ga]
- T/C (dose: 12.5 mg/kg/injection, schedule: Q01DX011 (ip), vehicle: saline): 20 % of control
- T/C (dose: 25.0 mg/kg/injection, schedule: Q01DX011 (ip), vehicle: saline): 24 % of control
- T/C (dose: 50.0 mg/kg/injection, schedule: Q01DX011 (ip), vehicle: saline): 7 % of control

SMILES: O=C(Nc1ccc(C2=NCCCN2)cc1)c1ccc(C(=O)Nc2ccc(C3=NCCCN3)cc2)cc1
- T/C (dose: 0.4 mg/kg/injection, schedule: Q01DX011 (ip), vehicle: water): 103 % of control
- T/C (dose: 0.8 mg/kg/injection, schedule: Q01DX011 (ip), vehicle: water): 117 % of control
- T/C (dose: 1.6 mg/kg/injection, schedule: Q01DX011 (ip), vehicle: water): 94 % of control
- T/C (dose: 3.2 mg/kg/injection, schedule: Q01DX011 (ip), vehicle: water): 97 % of control

SMILES: Cc1cc(N=Nc2ccc(-c3ccc(N=Nc4ccc(O)c(C(=O)O)c4)cc3)cc2)c(N)c(N=Nc2ccc(C(=O)Nc3ccc4cc(S(=O)(=O)O)ccc4c3)cc2)c1N
- T/C (dose: 45.0 mg/kg/injection, schedule: Q01DX011 (ip), vehicle: carboxymethylcellulose (CMC)): 158 % of control
- T/C (dose: 65.0 mg/kg/injection, schedule: Q01DX011 (ip), vehicle: carboxymethylcellulose (CMC)): 119 % of control
- T/C [1]: 69 % of control
- T/C (dose: 150.0 mg/kg/injection, schedule: Q01DX011 (ip), vehicle: carboxymethylcellulose (CMC)): 72 % of control

SMILES: CCN(CC)c1ccc(/C=C/c2ccnc3ccccc23)cc1
- T/C (dose: 2.5 mg/kg/injection, schedule: Q01DX011 (ip), vehicle: other): 86 % of control
- T/C (dose: 3.03 mg/kg/injection, schedule: Q01DX011 (ip), vehicle: carboxymethylcellulose (CMC)): 77 % of control
- T/C (dose: 3.23 mg/kg/injection, schedule: Q01DX011 (ip), vehicle: other): 84 % of control
- T/C (dose: 4.8 mg/kg/injection, schedule: Q01DX011 (ip), vehicle: carboxymethylcellulose (CMC)): 74 % of control
- T/C (dose: 5.0 mg/kg/injection, schedule: Q01DX011 (ip), vehicle: other): 91 % of control
- T/C (dose: 6.0 mg/kg/injection, schedule: Q01DX011 (ip), vehicle: carboxymethylcellulose (CMC)): 69 % of control
- T/C (dose: 6.05 mg/kg/injection, schedule: Q01DX011 (ip), vehicle: carboxymethylcellulose (CMC)): 119 % of control
- T/C (dose: 6.45 mg/kg/injection, schedule: Q01DX011 (ip), vehicle: other): 115 % of control
- T/C (dose: 8.0 mg/kg/injection, schedule: Q01DX011 (ip), vehicle: carboxymethylcellulose (CMC)): 55 % of control
- T/C (dose: 9.68 mg/kg/injection, schedule: Q01DX011 (ip), vehicle: carboxymethylcellulose (CMC)): 64 % of control
- T/C (dose: 12.0 mg/kg/injection, schedule: Q01DX011 (ip), vehicle: carboxymethylcellulose (CMC)): 46 % of control
- T/C (dose: 12.1 mg/kg/injection, schedule: Q01DX011 (ip), vehicle: carboxymethylcellulose (CMC)): 31 % of control
- T/C (dose: 12.9 mg/kg/injection, schedule: Q01DX011 (ip), vehicle: other): 55 % of control
- T/C (dose: 14.0 mg/kg/injection, schedule: Q01DX011 (ip), vehicle: carboxymethylcellulose (CMC)): 70 % of control
- T/C (dose: 15.0 mg/kg/injection, schedule: Q01DX011 (ip), vehicle: other): 25 % of control
- T/C (dose: 16.13 mg/kg/injection, schedule: Q01DX011 (ip), vehicle: carboxymethylcellulose (CMC)): 52 % of control

SMILES: CC(=O)NCCc1ccccc1
- T/C (dose: 12.5 mg/kg/injection, schedule: Q01DX011 (ip), vehicle: other): 106 % of control
- T/C (dose: 25.0 mg/kg/injection, schedule: Q01DX011 (ip), vehicle: other): 71 % of control
- T/C (dose: 50.0 mg/kg/injection, schedule: Q01DX011 (ip), vehicle: other): 99 % of control
- T/C (dose: 100.0 mg/kg/injection, schedule: Q01DX011 (ip), vehicle: other): 87 % of control
- T/C (dose: 200.0 mg/kg/injection, schedule: Q01DX011 (ip), vehicle: other): 59 % of control
- T/C (dose: 400.0 mg/kg/injection, schedule: Q01DX011 (ip), vehicle: other): 49 % of control
